From patent publication US20050084524A1, “Method for potentiating activity of a chemotherapeutic drug” (ALZA Corporation, priority 1998, published 2005)
Marks after values point to notes of the source that are not given here.

How the values were obtained:
[1] = Maximum tolerated dose (MTD) in immune-deficient mice; format: in vivo; settings: once weekly, intravenous
Excerpt: (§1) Animals were divided into 6 treatment groups (12 animals each) prior to inoculation of tumors in all experiments.

[2] = system: MDA453 xenografts; test: MDA453 human breast cancer xenograft, cisplatin study 8; format: in vivo, mice
Procedure: (§2) Two separate HER2-overexpressing human breast cancer xenograft models were utilized: BT474 and MDA453. The BT474 or MDA453 tumors were inoculated from cultured cells in exponential growth. Cells were trypsinized, collected and washed in media. Cells were counted by hemacytometer, spun down and resuspended in media at 50 million cells per milliliter of media (5 million cells per 0.1 ml injection volume). Resuspended cells were chilled, then mixed in an equal volume of Matrigel. Cells (0.2 ml, continuously mixed) were drawn into individual, chilled syringes for subcutaneous injection into the dorsum of each animal.
(§3) Immune-deficient female mice (NCR.nu/nu, Taconic Farms, Germantown, N.Y.) were obtained from the vendor and acclimated for at least 7 days prior to initiation of experiments. Animals were housed in microisolator caging (Thoren Caging, Hazelton, Pa.) with ad lib gamma irradiated rodent food and autoclaved, acidified water. Lights were set for 12:12 light: dark cycle. All animals received a 0.72 mg estradiol 17β sustained release pellet (Innovative Research of America, Sarasota, Fla.) by subcutaneous injection 24 hours prior to tumor inoculation. Animals were randomized into treatment groups prior to inoculation of tumors.
(§4) Animals were weighed prior to inoculation of tumors and at least weekly thereafter. Tumors were measured twice weekly throughout the experiment, beginning 6-8 days after tumor inoculation. Tumor measurements were made by digital caliper in 3 dimensions and the volume recorded as one half the product of these measurements. […]
Tumor volumes, measured repeatedly throughout experiments, were used for analysis as correlated information. […] Growth rates (slope) for each treatment group within each experiment were calculated and compared in linear regression. […]
(§5) Tumor size at specific times after treatment was compared between treated and control groups. Tumor growth inhibition was reported as % T/C which is the tumor size of each treated group divided by the control group, expressed as a percentage.

[3] = system: BT474 xenografts; test: BT474 human breast cancer xenograft, cisplatin studies 6-7; format: in vivo, mice
Procedure: In Study No. 6, mice were inoculated with BT474 cells.
The animals were dosed as described in Example 2, with the saline and chemotherapeutic agent administered intravenously once per week and the biological agent administered intraperitoneally twice per week.
as §2, §3
(§6) Animals were weighed prior to inoculation of tumors and at least weekly thereafter. Tumors were measured twice weekly throughout the experiment, beginning 6-8 days after tumor inoculation. Tumor measurements were made by digital caliper in 3 dimensions and the volume recorded as one half the product of these measurements. Any animal observed to have 15% or greater weight loss from the initial starting weight was immediately euthanized. Any animal observed to have greater than 4,000 mm^3 tumor volume was immediately euthanized.
as §1
All treatments were administered for 3 weekly cycles. Treatment was initiated when average tumor volume was 75 mm^3 (approximately 6-10 days after inoculation).
Tumor volumes, measured repeatedly throughout experiments, were used for analysis as correlated information. Since tumor growth over time after treatment was of interest, repeated measurement analysis for each treatment group was performed. Growth rates (slope) for each treatment group within each experiment were calculated and compared in linear regression. If the growth rate was positive for a certain treatment, tumors were still growing even after receiving the drug; if the growth rate is negative, tumors began to shrink after receiving the drug; if the growth rate is 0, tumors stop growing after receiving the drug. A p-value of 0.05 or less is considered significant.
as §5

[4] = system: BT474 xenografts; test: BT474 human breast cancer xenograft, doxorubicin studies 1-3; format: in vivo, mice
Procedure: In study numbers 1, 2 and 3 immune-deficient mice were inoculated by subcutaneous injection into the dorsum with 5 million BT474 cells in 0.1 mL added to an equal volume of Matrigel for an inoculation volume of 0.2 mL. The inoculated mice were divided into six treatment groups of 12 mice each, prior to inoculation. Treatment was initiated when the average tumor volume was 100 mm^3, which occurred approximately 7-10 days after inoculation.
Saline, doxorubicin and liposome-entrapped doxorubicin were administered by intravenous injection for three treatments. […] The animals were monitored daily and the tumors were measured in three dimensions twice weekly over the study period.
(§7) 1. BT474 and MDA453 Cells: The BT474 and MDA453 tumors were each inoculated from cultured cells in exponential growth. Cells were trypsinized, collected and washed in media. Cells were counted by hemacytometer, spun down and resuspended in media at 50 million cells per milliliter of media. Resuspended cells were chilled, then mixed with an equal volume of Matrigel. Cells (5 million cells per 0.2 ml injection volume, continuously mixed) were drawn into individual, chilled syringes for subcutaneous injection into the dorsum of each animal.
(§8) Immune deficient mice were used in all experiments. Study numbers 1, 2, 3 and 4 were conducted in homozygous nude female mice. Study number 5 was conducted in homozygous ICR scid female mice. All mice were obtained at the age of four weeks and acclimated for a minimum of 1 week prior to tumor inoculation. All mice were ear tagged for individual identification during acclimation. For each study, 75 mice were inoculated with tumors to supply 72 study animals at treatment.
as §6, with “one-half” for “one half”, “euthanized by inhalation of 100% carbon dioxide.” for “euthanized.”
Animals were divided into 6 treatment groups prior to inoculation of tumors. […] Treatment was initiated when average tumor volume was 100 mm^3 (approximately 7-10 days after inoculation).
Tumor volumes, measured repeatedly throughout the experiments, were used for analysis as correlated information. Since tumor growth over time after treatment was of interest, repeated measurement analysis for each treatment group was performed. All tumor volumes were log transformed, with z=log10(y+1) where y is the calculated tumor volume, thus when y=0, z is meaningful and z=0. Log growth rates for transformed values, z, for each treatment group within each experiment were calculated and compared in linear regression. If the log growth rate is positive for a certain treatment, this means that the tumors still grow even after receiving the drug; if the log growth rate is negative, this means that the tumors begin to shrink after receiving the drug; if the log growth rate is 0, then the tumors stop growing after receiving the drug. A p-value of 0.05 or less is statically significant.

[5] = system: A431 tumor; test: A431 tumor xenograft implanted subcutaneously in nude mice, tumor volume; format: in vivo
Excerpt: In studies performed in support of the invention, a xenograft of the A431 tumor was implanted subcutaneously in nude mice. […] The liposomes included a vesicle-forming lipid derivatized with the hydrophilic polymer polyethyleneglycol.

[6] = system: B585 xenografts; test: B585 primary human breast cancer xenograft, doxorubicin study 5; format: in vivo, mice; settings: doxorubicin HCl or liposome-entrapped 4 mg/kg iv once/week x3, anti-HER2 antibody 3 mg/kg ip twice/week x6
Procedure: 2. […] Resuspended cells were chilled, then mixed with an equal volume of Matrigel. Cells (5 million cells per 0.2 ml injection volume, continuously mixed) were drawn into individual, chilled syringes for subcutaneous injection into the dorsum of each animal.
as §8, with “For each study, 75 mice were inoculated with tumors to supply 72 study animals at treatment.” left out
as §4, with “one-half” for “one half”
(§9) Tumor volumes, measured repeatedly throughout the experiments, were used for analysis as correlated information. […] All tumor volumes were log transformed, with z=log10(y+1) where y is the calculated tumor volume, thus when y=0, z is meaningful and z=0. Log growth rates for transformed values, z, for each treatment group within each experiment were calculated and compared in linear regression. […]

[7] = system: MDA453 xenografts; test: MDA453 human breast cancer xenograft, doxorubicin study 4; format: in vivo, mice
Procedure: as §7
Immune deficient mice were used in all experiments. Study numbers 1, 2, 3 and 4 were conducted in homozygous nude female mice. […]
as §4, with “one-half” for “one half”
as §9

Compound: N.N.[Cl][Pt][Cl] [Cisplatin, cisplatin]
- MTD [1]: 6 mg/kg
- Size of treated tumors as a function of size of control tumors, % T/C, Study No. 8 ([2]; Day 33, MDA453, cisplatin 4 mg/kg, antibody 1 mg/kg, control saline): 56.1 % T/C
- tumor volume over treatment period (FIGS. 9A-9B), in words ([2]; Study No. 8, MDA453, cisplatin 4 mg/kg, antibody 1 mg/kg): continual tumor growth
- Growth rate of tumors (slope), Study No. 8 MDA453 ([2]; cisplatin or liposome-entrapped cisplatin 4 mg/kg iv once/week x3, anti-HER2 antibody 1 mg/kg ip twice/week x6): 19.84^e
- Size of treated tumors as a function of size of control tumors, % T/C, Study No. 6 ([3]; Day 44, BT474, cisplatin 6 mg/kg, antibody 3 mg/kg, control saline): 10.0 % T/C
- Size of treated tumors as a function of size of control tumors, % T/C, Study No. 7 ([3]; Day 49, BT474, cisplatin 4 mg/kg, antibody 0.5 mg/kg, control saline): 41.7 % T/C
- tumor volume over treatment period (FIGS. 7A-7B), in words ([3]; Study No. 6, BT474, cisplatin 6 mg/kg, antibody 3 mg/kg): fared considerably better than the untreated animals
- tumor volume over treatment period (FIG. 8), in words ([3]; Study No. 7, BT474, cisplatin 4 mg/kg, antibody 0.5 mg/kg): continual tumor growth
- Growth rate of tumors (slope), Study No. 7 BT474 ([3]; cisplatin or liposome-entrapped cisplatin 4 mg/kg iv once/week x3, anti-HER2 antibody 0.5 mg/kg ip twice/week x6): 14.35^b
- Growth rate of tumors (slope), Study No. 6 BT474 ([3]; cisplatin or liposome-entrapped cisplatin 6 mg/kg iv once/week x3, anti-HER2 antibody 3 mg/kg ip twice/week x6): 1.02

Compound: COc1cccc2c1C(=O)c1c(O)c3c(c(O)c1C2=O)C[C@@](O)(C(=O)CO)C[C@@H]3O[C@H]1C[C@H](N)[C@H](O)[C@H](C)O1 [doxorubicin]
- Log Growth Rate, Study No. 1 ([4]; BT474, doxorubicin HCl 4 mg/kg or liposome-entrapped 3 mg/kg iv once/week x3, anti-HER2 antibody 10 mg/kg ip twice/week x6): 0.027
- Log Growth Rate, Study No. 3 ([4]; BT474, doxorubicin HCl or liposome-entrapped 3 mg/kg iv once/week x3, anti-HER2 antibody 1 mg/kg ip twice/week x6): 0.011^a
- Log Growth Rate, Study No. 2 ([4]; BT474, doxorubicin HCl or liposome-entrapped 5 mg/kg iv once/week x3, anti-HER2 antibody 3 mg/kg ip twice/week x6): 0.010^a
- tumor volume over treatment period (FIGS. 2A-2B), in words ([4]; Study No. 1, BT474, doxorubicin 4 mg/kg, liposomal 3 mg/kg, antibody 10 mg/kg): continual tumor growth
- tumor volume over treatment period (FIGS. 3A-3B), in words ([4]; Study No. 2, BT474, doxorubicin 5 mg/kg, liposomal 5 mg/kg, antibody 3 mg/kg): reduced tumor volume relative to the control animals
- tumor volume over treatment period (FIGS. 4A-4B), in words ([4]; Study No. 3, BT474, doxorubicin 3 mg/kg, liposomal 3 mg/kg, antibody 1 mg/kg): fared better than the untreated animals
- Tumor Volume at 40 days ([5]; 40 days following tumor implantation): 1700 mm^3
- Tumor Volume at 60 days ([5]; 60 days following tumor implantation): 3650 mm^3
- tumor volume as a function of time (FIG. 1), in words ([5]; treatment from day 6): still an increase in tumor size but to a lesser extent
- Log Growth Rate, Study No. 5 [6]: 0.052
- Log Growth Rate, Study No. 4 ([7]; MDA453, doxorubicin HCl or liposome-entrapped 5 mg/kg iv once/week x3, anti-HER2 antibody 5 mg/kg ip twice/week x6): 0.020^a
- tumor volume over treatment period (FIGS. 5A-5B), in words ([7]; Study No. 4, MDA453, doxorubicin 5 mg/kg, liposomal 5 mg/kg, antibody 5 mg/kg): continual increase in tumor volume
